According to the supplement of paper PMC11061612:

How the values were obtained:
Experiment in all cases: Bliss excess, mean over the matrix (fraction); higher = more synergy
[1] = tested on: TE-5 (Esophageal Squamous Cell Carcinoma)
In short: (§1)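 Cell lines grown in DMEM/F12 or RPMI with 10% FBS were plated in 1536-well plates and held 24 hours at 37°C, 5% CO2 before 72 hours of exposure to two-drug dose matrices, with DMSO typically at 0.2%. CellTiter-Glo 2.0 luminescence gave viability, which was converted to inhibition. Vehicle wells were set to 0 and blank wells to 1. Combination Emax is the second-highest inhibition in the matrix, and Bliss excess is the observed combination effect minus the expected EA + EB − EA·EB, where EA and EB are the single-agent effects.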

[2] = tested on: LS-513 (Colorectal Carcinoma)
In short: as §1

[3] = tested on: SUIT-2 (Pancreatic Carcinoma)
In short: as §1

[4] = tested on: DMS-273 (Small Cell Lung Carcinoma)
In short: as §1

RH-1 (Ewing's Sarcoma) = tested on: RH-1 (Ewing's Sarcoma)
In short: as §1

[5] = tested on: SW756 (Cervical Carcinoma)
In short: as §1

[6] = tested on: NCI-H1781 (Lung Adenocarcinoma)
In short: as §1

[7] = tested on: U-266 (Plasma Cell Myeloma)
In short: as §1

[8] = tested on: COR-L23 (Non-Small Cell Lung Carcinoma)
In short: as §1

DSH1 (Bladder Carcinoma) = tested on: DSH1 (Bladder Carcinoma)
In short: as §1

[9] = tested on: HT-29 (Colorectal Carcinoma)
In short: as §1

[10] = tested on: LU-99A (Non-Small Cell Lung Carcinoma)
In short: as §1

[11] = tested on: SW1088 (Low Grade Glioma)
In short: as §1

[12] = tested on: DOV13 (Ovarian Carcinoma)
In short: as §1

NCI-H2595 (Mesothelioma) = tested on: NCI-H2595 (Mesothelioma)
In short: as §1

[13] = tested on: NCI-H1299 (Non-Small Cell Lung Carcinoma)
In short: as §1

[14] = tested on: IHH-4 (Thyroid Gland Carcinoma)
In short: as §1

[15] = tested on: HCC2157 (Breast Carcinoma)
In short: as §1

SK-N-FI (Neuroblastoma) = tested on: SK-N-FI (Neuroblastoma)
In short: as §1

[16] = tested on: CTV-1 (T-Lymphoblastic Leukemia)
In short: as §1

Structure (SMILES) | Bliss excess [1] | Bliss excess [2] | Bliss excess [3] | Bliss excess [4] | Bliss excess (RH-1 (Ewing's Sarcoma)) | Bliss excess [5] | Bliss excess [6] | Bliss excess [7] | Bliss excess [8] | Bliss excess (DSH1 (Bladder Carcinoma)) | Bliss excess [9] | Bliss excess [10] | Bliss excess [11] | Bliss excess [12] | Bliss excess (NCI-H2595 (Mesothelioma)) | Bliss excess [13] | Bliss excess [14] | Bliss excess [15] | Bliss excess (SK-N-FI (Neuroblastoma)) | Bliss excess [16]
CC(=O)Nc1cccc(-n2c(=O)n(C3CC3)c(=O)c3c(Nc4ccc(I)cc4F)n(C)c(=O)c(C)c32)c1 [Trametinib] + Cc1nc(-c2cn3c(n2)-c2ccc(-c4cnn(C(C)(C)C(N)=O)c4)cc2OCC3)n(C(C)C)n1 [Taselisib] (first compound max 1 µM, 7x7, partner max 10 µM) | 0.101 | 0.0113 | 0.0928 | 0.0427 | 0.0194 | 0.0988 | -0.053 | 0.181 | 0.162 | 0.0704 | 0.0526 | 0.116 | 0.0579 | 0.136 | 0.0412 | 0.121 | -0.0242 | 0.0554 | 0.033 | 0.328
C[C@@H]1COCCN1c1cc(C2([S@](C)(=N)=O)CC2)nc(-c2ccnc3[nH]ccc23)n1 [AZD6738] + O=C(c1cc(Cc2n[nH]c(=O)c3ccccc23)ccc1F)N1CCN(C(=O)C2CC2)CC1 [Olaparib] (first compound max 10 µM, 7x7, partner max 10 µM) | -0.021 | 0.0419 | -0.0264 | -0.0473 | 0.0873 | -0.0158 | -0.0218 | 0.0151 | -0.034 | -0.0205 | -0.0014 | -0.0289 | 0.0087 | 0.0127 | -0.0073 | -0.0365 | 0.0506 | 0.0441 | -0.0581 | 0.043
CC1(C)CCC(CN2CCN(c3ccc(C(=O)NS(=O)(=O)c4ccc(NCC5CCOCC5)c([N+](=O)[O-])c4)c(Oc4cnc5[nH]ccc5c4)c3)CC2)=C(c2ccc(Cl)cc2)C1 [Venetoclax] + COc1cc(Nc2ncc3c(n2)-c2ccc(Cl)cc2C(c2c(F)cccc2OC)=NC3)ccc1C(=O)O [Alisertib] (first compound max 1 µM, 7x7, partner max 10 µM) | -0.105 | -0.0655 | -0.0515 | 0.0086 | -0.0065 | -0.0426 | -0.0303 | 0.131 | -0.0201 | 0.128 | 0.0016 | -0.0244 | 0.0049 | 0.0303 | -0.0543 | 0.0391 | -0.0216 | 0.113 | 0.0916 | -0.0095
CS(=O)(=O)CCNCc1ccc(-c2ccc3ncnc(Nc4ccc(OCc5cccc(F)c5)c(Cl)c4)c3c2)o1 [Lapatinib] + C[C@@H](Oc1cc(-c2cnn(C3CCNCC3)c2)cnc1N)c1c(Cl)ccc(F)c1Cl [Crizotinib] (first compound max 10 µM, 7x7, partner max 10 µM) | -0.0054 | -0.023 | 0.0051 | 0.0146 | -0.0553 | -0.0138 | -0.0715 | -0.0574 | -0.0296 | 0.0668 | -0.0475 | -0.0205 | -0.0612 | -0.0621 | -0.0198 | -0.0677 | -0.0634 | -0.0482 | -0.0365 | 0.036
Cc1cc2ncnn2cc1Nc1ncc2c(n1)n(C1CCOCC1)c(=O)n2C [AZD7648] + CN(C)CCCOc1ccc(-c2ccc3ncc4c(c3c2)n(C2CCOCC2)c(=O)n4C)cn1 [AZD0156] (first compound max 10 µM, 7x7, partner max 1 µM) | -0.0362 | -0.021 | -0.0125 | 0.05 | 0.0087 | 0.0076 | 0.0151 | 0.018 | -0.0212 | 0.0171 | 0.0289 | -0.0208 | -0.0698 | -0.0169 | -0.0373 | 0.0177 | 0.0352 | 0.0081 | 0.0029 | 0.0449
CC1(C)CCC(CN2CCN(c3ccc(C(=O)NS(=O)(=O)c4ccc(NCC5CCOCC5)c([N+](=O)[O-])c4)c(Oc4cnc5[nH]ccc5c4)c3)CC2)=C(c2ccc(Cl)cc2)C1 [Venetoclax] + C[C@@H]1COCCN1C2=NC(=NC(=C2)C3(CC3)[S@](=N)(=O)C)C4=C5C=CNC5=NC=C4 [AZD6738] (first compound max 1 µM, 7x7, partner max 10 µM) | -0.0623 | -0.0591 | -0.0491 | -0.0779 | -0.0158 | -0.0249 | 0.0284 | -0.0402 | -0.0392 | -0.0662 | -0.0215 | -0.0278 | -0.0327 | -0.001 | 0.0027 | -0.0203 | -0.0482 | 0.0204 | 0.0009 | -0.0067
CN(CCO)CC[C@H](CSc1ccccc1)Nc1ccc(S(=O)(=O)NC(=O)c2ccc(N3CCC([C@@H](O)c4ccccc4-c4ccc(Cl)cc4)CC3)cc2)cc1S(=O)(=O)C(F)(F)F [AZD4320] + C[C@@H](Nc1cc(F)cc(F)c1)c1cc(C(=O)N(C)C)cc2c(=O)cc(N3CCOCC3)oc12 [AZD8186] (first compound max 1 µM, 7x7, partner max 3 µM) | -0.0144 | -0.0076 | 0.025 | 0.0236 | 0.0588 | -0.0213 | 0.0358 | -0.0077 | -0.0063 | -0.0381 | 0.0097 | -0.0296 | 0.0357 | -0.0141 | 0.0344 | 0.0118 | 0.0438 | 0.0774 | -0.0165 | 0.0326
CC1(C)CCC(CN2CCN(c3ccc(C(=O)NS(=O)(=O)c4ccc(NCC5CCOCC5)c([N+](=O)[O-])c4)c(Oc4cnc5[nH]ccc5c4)c3)CC2)=C(c2ccc(Cl)cc2)C1 [Venetoclax] + C[C@@H](Nc1cc(F)cc(F)c1)c1cc(C(=O)N(C)C)cc2c(=O)cc(N3CCOCC3)oc12 [AZD8186] (first compound max 1 µM, 7x7, partner max 3 µM) | -0.0327 | -0.0551 | -0.0481 | 0.0274 | -0.0429 | -0.0452 | -0.0341 | 0.0357 | -0.0328 | 0.002 | -0.0255 | -0.0412 | -0.0044 | -0.0073 | -0.0111 | -0.0492 | 0.0138 | 0.115 | -0.0178 | 0.0057
Cn1cnc2c(F)c(Nc3ccc(Br)cc3Cl)c(C(=O)NOCCO)cc21 [Selumetinib] + CCN(CCO)CCCOc1ccc2c(Nc3cc(CC(=O)Nc4cccc(F)c4)[nH]n3)ncnc2c1 [AZD2811] (first compound max 10 µM, 7x7, partner max 1 µM) | -0.0191 | -0.0184 | -0.0526 | -0.0144 | -0.0239 | -0.008 | 0.0045 | 0.0128 | 0.0428 | 0.0022 | -0.0042 | -0.0383 | -0.0456 | -0.0915 | -0.0185 | -0.0205 | -0.0209 | 0.0194 | 0.0239 | 0.0436
CCN(CCO)CCCOc1ccc2c(Nc3cc(CC(=O)Nc4cccc(F)c4)[nH]n3)ncnc2c1 [AZD2811] + O=C(c1cc(Cc2n[nH]c(=O)c3ccccc23)ccc1F)N1CCN(C(=O)C2CC2)CC1 [Olaparib] (first compound max 1 µM, 7x7, partner max 10 µM) | -0.0181 | -0.0158 | -0.0254 | -0.0044 | -0.0451 | -0.0232 | -0.0293 | -0.0139 | -0.016 | 0.0082 | 0.0007 | -0.0181 | -0.0539 | -0.0824 | 0.0072 | -0.0131 | 0.0229 | -0.0105 | -0.0001 | 0.0712
CN(CCO)CC[C@H](CSc1ccccc1)Nc1ccc(S(=O)(=O)NC(=O)c2ccc(N3CCC([C@@H](O)c4ccccc4-c4ccc(Cl)cc4)CC3)cc2)cc1S(=O)(=O)C(F)(F)F [AZD4320] + CN(C)CCCOc1ccc(-c2ccc3ncc4c(c3c2)n(C2CCOCC2)c(=O)n4C)cn1 [AZD0156] (first compound max 1 µM, 7x7, partner max 1 µM) | -0.0135 | -0.0391 | -0.0407 | -0.0199 | -0.024 | -0.0362 | -0.0694 | 0.0462 | -0.0231 | 0.0303 | -0.0238 | -0.006 | -0.033 | -0.0021 | -0.0348 | -0.0462 | -0.022 | 0.009 | -0.0252 | -0.0055
COc1cc2c(cc1OCCCCCOc1cc3c(cc1OC)C(=O)N1C=C(C)C[C@H]1C=N3)N=C[C@@H]1CC(C)=CN1C2=O [SG3199] + O=C(c1cc(Cc2n[nH]c(=O)c3ccccc23)ccc1F)N1CCN(C(=O)C2CC2)CC1 [Olaparib] (first compound max 0.001 µM, 7x7, partner max 10 µM) | -0.0665 | -0.0372 | -0.0029 | 0.002 | -0.0035 | 0.0091 | -0.0305 | -0.0601 | 0.0285 | -0.0442 | -0.0261 | -0.0672 | -0.0511 | -0.0443 | -0.0437 | -0.0381 | -0.0115 | 0.0277 | -0.0296 | -0.013
Cn1cnc2c(F)c(Nc3ccc(Br)cc3Cl)c(C(=O)NOCCO)cc21 [Selumetinib] + CC(C)n1c(=O)n(C)c2cnc3cc(F)c(-c4ccc(OCCCN5CCCCC5)nc4)cc3c21 [AZD1390] (first compound max 10 µM, 7x7, partner max 0.3 µM) | -0.0317 | -0.0395 | -0.0294 | -0.0103 | -0.0497 | -0.019 | -0.0223 | -0.0413 | -0.0251 | -0.0002 | -0.0043 | -0.0058 | -0.0368 | -0.0576 | -0.0415 | -0.012 | -0.0326 | 0.002 | -0.0208 | 0.0032
NC1(C(=O)N[C@@H](CCO)c2ccc(Cl)cc2)CCN(c2ncnc3[nH]ccc23)CC1 [Capivasertib] + CCN(CCO)CCCOc1ccc2c(Nc3cc(CC(=O)Nc4cccc(F)c4)[nH]n3)ncnc2c1 [AZD2811] (first compound max 10 µM, 7x7, partner max 1 µM) | -0.0283 | -0.0771 | -0.0074 | -0.0015 | 0.0222 | -0.0299 | -0.0433 | -0.105 | -0.0446 | -0.0694 | -0.0137 | 0.0154 | -0.0088 | -0.0392 | -0.0718 | 0.0012 | 0.0289 | -0.0286 | -0.0265 | 0.0423
